What was measured:
Format in all cases: in vivo
[1] = test system: Boll Weevil (Anthonomus grandis); test: B.3 Boll Weevil (Anthonomus grandis), microtiter plate insect diet; settings: 120 h, 800 ppm, sprayed onto insect diet, 5 days, in comparison with untreated controls, read-out: mortality (egg and larval)
Method: B.3 Boll Weevil (Anthonomus grandis)
For evaluating control of boll weevil (Anthonomus grandis) the test unit consisted of 96-well-microtiter plates containing an insect diet and 5-10 A. grandis eggs.
(§1) The compounds were formulated using a solution containing 75% v/v water and 25% v/v DMSO. Different concentrations of formulated compounds were sprayed onto the insect diet at 5 μl, using a custom built micro atomizer, at two replications.
After application, microtiter plates were incubated at about 25±1° C. and about 75±5% relative humidity for 5 days. Egg and larval mortality was then visually assessed.

[2] = test system: Tobacco Budworm (Heliothis virescens); test: B.7 Tobacco Budworm (Heliothis virescens) I, microtiter plate insect diet; settings: 120 h, 800 ppm, sprayed onto insect diet, 5 days, in comparison with untreated controls, read-out: mortality (egg and larval)
Method: B.7 Tobacco Budworm (Heliothis virescens) I
as §1, with “For evaluating control of tobacco budworm (Heliothis virescens) the test unit consisted of 96-well-microtiter plates containing an insect diet and 15-25 H. virescens eggs. The” for “The”, “at 10” for “at 5”
(§2) After application, microtiter plates were incubated at about 28±1° C. and about 80±5% relative humidity for 5 days. Egg and larval mortality was then visually assessed.

[3] = test system: Mediterranean Fruitfly (Ceratitis capitata); test: B.6 Mediterranean Fruitfly (Ceratitis capitata), microtiter plate insect diet; settings: 120 h, 800 ppm, sprayed onto insect diet, 5 days, in comparison with untreated controls, read-out: mortality (egg and larval)
Method: B.6 Mediterranean Fruitfly (Ceratitis capitata)
For evaluating control of Mediterranean fruitfly (Ceratitis capitata) the test unit consisted of microtiter plates containing an insect diet and 50-80 C. capitata eggs.
as §1, §2

[4] = test system: Diamond Back Moth (Plutella xylostella); test: B.1 Diamond Back Moth (Plutella xylostella), cabbage leaf dip; settings: foliar, 500 ppm, 3rd instar larvae on dipped cabbage leaves, 72 hours after treatment, in comparison with untreated controls, read-out: mortality
Method: B.1 Diamond Back Moth (Plutella xylostella)
The active compound was dissolved at the desired concentration in a mixture of 1:1 (vol:vol) distilled water:aceteone. Surfactant (Kinetic HV) was added at a rate of 0.01% (vol/vol). The test solution was prepared at the day of use.
Leaves of cabbage were dipped in test solution and air-dried. Treated leaves were placed in petri dishes lined with moist filter paper and inoculated with ten 3rd instar larvae. Mortality was recorded 72 hours after treatment. Feeding damages were also recorded using a scale of 0-100%.

## FC(F)(F)Oc1ccc(-n2cnc3c4ccc(/C=N/NC(=S)Nc5c(Cl)cc(Cl)cc5Cl)cc4ccc32)cc1 [C-3, 1-(2,4,6-trichlorophenyl)-3-[(E)-[3-[4-(trifluoromethoxy)phenyl]benzo[e]benzimidazol-7-yl]methyleneamino] thiourea]
[1]
  mortality at 800 ppm: ≥ 75%
[2]
  mortality at 800 ppm: ≥ 75%
[3]
  mortality at 800 ppm: ≥ 75%
[4]
  mortality at 500 ppm: ≥ 75%

## Cc1cccc(C)c1NC(=S)N/N=C/c1ccc2c(c1)CCc1c-2nnn1-c1ccc(OC(F)(F)F)cc1 [C-11, 1-(2,6-dimethylphenyl)-3-[(E)-[3-[4-(trifluoromethoxy)phenyl]-4,5-dihydrobenzo[e]benzotriazol-7-yl]methyleneamino]thiourea]
[2]
  mortality at 800 ppm: ≥ 75%
[3]
  mortality at 800 ppm: ≥ 75%

## FC(F)(F)Oc1ccc(-n2cnc3c4ccc(/C=N/NC(=S)Nc5ccc(Cl)cc5Cl)cc4ccc32)cc1 [C-27, 1-(2,4-dichlorophenyl)-3-[(E)-[3-[4-(trifluoromethoxy)phenyl]benzo[e]benzimidazol-7-yl]methyleneamino]thiourea]
[1]
  mortality at 800 ppm: ≥ 75%
[3]
  mortality at 800 ppm: ≥ 75%
[4]
  mortality at 500 ppm: ≥ 75%

## Cc1cccc(NC(=S)N/N=C/c2ccc3c(ccc4c3ncn4-c3ccc(OC(F)(F)F)cc3)c2)c1C [C-28, 1-(2,3-dimethylphenyl)-3-[(E)-[3-[4-(trifluoromethoxy)phenyl]benzo[e]benzimidazol-7-yl]methyleneamino] thiourea]
[1]
  mortality at 800 ppm: ≥ 75%
[2]
  mortality at 800 ppm: ≥ 75%
[3]
  mortality at 800 ppm: ≥ 75%

## CCc1ccccc1NC(=S)N/N=C/c1ccc2c(c1)CCc1c-2nnn1-c1ccc(OC(F)(F)F)cc1 [C-32, 1-(2-ethylphenyl)-3-[[3-[4-(trifluoromethoxy)phenyl]-5,6-dihydro-4H-benzo[e]benzotriazol-7-ylidene]methylimino]thiourea]
[1]
  mortality at 800 ppm: ≥ 75%

## Cc1cc(Br)cc(C)c1NC(=S)N/N=C/c1ccc2c(c1)CCc1c-2nnn1-c1ccc(OC(F)(F)F)cc1 [C-33, 1-(4-bromo-2,6-dimethyl-phenyl)-3-[(E)-[3-[4-(trifluoromethoxy)phenyl]-4,5-dihydrobenzo[e]benzotriazol-7-yl]methyleneamino]thiourea]
[1]
  mortality at 800 ppm: ≥ 75%
[2]
  mortality at 800 ppm: ≥ 75%

## Cc1c(Cl)cccc1NC(=S)N/N=C/c1ccc2c(ccc3c2ncn3-c2ccc(OC(F)(F)F)cc2)c1 [C-39, 1-(3-chloro-2-methyl-phenyl)-3-[(E)-[3-[4-(trifluoromethoxy)phenyl]benzo[e]benzimidazol-7-yl]methyleneamino] thiourea]
[1]
  mortality at 800 ppm: ≥ 75%
[2]
  mortality at 800 ppm: ≥ 75%
[3]
  mortality at 800 ppm: ≥ 75%

## Fc1ccccc1NC(=S)N/N=C/c1ccc2c(ccc3c2ncn3-c2ccc(OC(F)(F)F)cc2)c1 [C-40, 3-(2-fluorophenyl)-1-[[3-[4-(trifluoromethoxy)phenyl]-5H-benzo[e]benzimidazol-7-ylidene]methylimino] isothiourea]
[1]
  mortality at 800 ppm: ≥ 75%
[3]
  mortality at 800 ppm: ≥ 75%
[4]
  mortality at 500 ppm: ≥ 75%

## FC(F)(F)Oc1ccc(-n2cnc3c4ccc(/C=N/NC(=S)Nc5cc(Cl)ccc5Cl)cc4ccc32)cc1 [C-42, 1-(2,5-dichlorophenyl)-3-[(E)-[3-[4-(trifluoromethoxy)phenyl]benzo[e]benzimidazol-7-yl]methyleneamino] thiourea]
[1]
  mortality at 800 ppm: ≥ 75%

## FC(F)(F)Oc1ccc(-n2ncc3c4ccc(/C=N/NC(=S)Nc5c(Cl)cccc5Cl)cc4ccc32)cc1 [C-49, 1-(2,6-dichlorophenyl)-3-[(E)-[3-[4-(trifluoromethoxy)phenyl]benzo[e]indazol-7-yl]methyleneamino]thiourea]
[1]
  mortality at 800 ppm: ≥ 75%
[2]
  mortality at 800 ppm: ≥ 75%

## Cc1cccc(C)c1NC(=S)N/N=C/c1ccc2c(ccc3c2nnn3-c2ccc(OC(F)(F)F)cc2)c1 [C-54, 1-(2,6-dimethylphenyl)-3-[(E)-[3-[4-(trifluoromethoxy)phenyl]benzo[e]benzotriazol-7-yl]methyleneamino] thiourea]
[2]
  mortality at 800 ppm: ≥ 75%

## C/C(=N\NC(=S)Nc1c(Cl)cccc1Cl)c1ccc2c(ccc3c2ncn3-c2ccc(OC(F)(F)F)cc2)c1 [C-59]
[1]
  mortality at 800 ppm: ≥ 75%
[2]
  mortality at 800 ppm: ≥ 75%
[3]
  mortality at 800 ppm: ≥ 75%

## CCc1cccc(CC)c1NC(=S)N/N=C/c1ccc2c(ccc3c2nnn3-c2ccc(OC(F)(F)F)cc2)c1 [C-61, 1-(2,6-diethylphenyl)-3-[(E)-[3-[4-(trifluoromethoxy)phenyl]benzo[e]benzotriazol-7-yl]methyleneamino] thiourea]
[1]
  mortality at 800 ppm: ≥ 75%
[2]
  mortality at 800 ppm: ≥ 75%

## CCc1cccc(C)c1NC(=S)N/N=C/c1ccc2c(ccc3c2nnn3-c2ccc(OC(F)(F)F)cc2)c1 [C-62, 1-(2-ethyl-6-methyl-phenyl)-3-[(E)-[3-[4-(trifluoromethoxy)phenyl]benzo[e]benzotriazol-7-yl]methyleneamino] thiourea]
[2]
  mortality at 800 ppm: ≥ 75%

## Cc1cccnc1NC(=S)N/N=C/c1ccc2c(ccc3c2ncn3-c2ccc(OC(F)(F)F)cc2)c1 [C-63, 1-(3-methyl-2-pyridyl)-3-[(E)-[3-[4-(trifluoromethoxy)phenyl]benzo[e]benzimidazol-7-yl]methyleneamino] thiourea]
[1]
  mortality at 800 ppm: ≥ 75%
[2]
  mortality at 800 ppm: ≥ 75%
[3]
  mortality at 800 ppm: ≥ 75%

## FC(F)(F)Oc1ccc(-n2cnc3c4ccc(/C=N/NC(=S)Nc5ccccc5I)cc4ccc32)cc1 [C-64, 1-(2-iodophenyl)-3-[[3-[4-(trifluoromethoxy)phenyl]-5H-benzo[e]benzimidazol-7-ylidene]methylimino] thiourea]
[1]
  mortality at 800 ppm: ≥ 75%
[2]
  mortality at 800 ppm: ≥ 75%
[3]
  mortality at 800 ppm: ≥ 75%

## FC(F)(F)Oc1ccc(-n2cnc3c4ccc(/C=N/NC(=S)Nc5cccnc5)cc4ccc32)cc1 [C-73, 1-(3-pyridyl)-3-[(E)-[3-[4-(trifluoromethoxy)phenyl]benzo[e]benzimidazol-7-yl]methyleneamino] thiourea]
[1]
  mortality at 800 ppm: ≥ 75%

## O=C(N/N=C/c1ccc2c(ccc3c2ncn3-c2ccc(OC(F)(F)F)cc2)c1)Nc1ccccc1 [C-89, 1-phenyl-3-[(E)-[3-[4-(trifluoromethoxy)phenyl]benzo[e]benzimidazol-7-yl]methyleneamino]urea]
[1]
  mortality at 800 ppm: ≥ 75%
[2]
  mortality at 800 ppm: ≥ 75%
[4]
  mortality at 500 ppm: ≥ 75%

## CN1N=C2c3ccc(/C=N/NC(=S)Nc4c(Cl)cccc4Cl)cc3CCC2C1c1ccc(OC(F)(F)F)cc1 (centres unmarked) [C-95, 1-(2,6-dichlorophenyl)-3-[(E)-[2-methyl-3-[4-(trifluoromethoxy)phenyl]-3,3a,4,5-tetrahydrobenzo[g]indazol-7-yl]methyleneamino]thiourea]
[1]
  mortality at 800 ppm: ≥ 75%
[2]
  mortality at 800 ppm: ≥ 75%
[4]
  mortality at 500 ppm: ≥ 75%

## Cn1nc2c(ccc3cc(/C=N/NC(=S)Nc4ncccc4I)ccc32)c1-c1ccc(OC(F)(F)F)cc1 [C-102, 1-(3-iodo-2-pyridyl)-3-[(E)-[2-methyl-3-[4-(trifluoromethoxy)phenyl]benzo[g]indazol-7-yl]methyleneamino]thiourea]
[1]
  mortality at 800 ppm: ≥ 75%

## O=C(/N=C1\SCC(=O)N1c1ccccc1C(F)(F)F)Nc1ccc2c(ccc3c2ncn3-c2ccc(OC(F)(F)F)cc2)c1 [C-116, (1Z)-1-[4-oxo-3-[2-(trifluoromethyl)phenyl]thiazolidin-2-ylidene]-3-[3-[4-(trifluoromethoxy)phenyl]-8H-benzo[e]benzimidazol-7-ylidene]urea]
[1]
  mortality at 800 ppm: ≥ 75%
[2]
  mortality at 800 ppm: ≥ 75%
